# Legend:
# Aspergillus niger = assay: Minimum inhibitory concentration (MIC) against fungi on malt extract agar; format: cell-based; conditions: 2 weeks of incubation at 28° C., 60 to 70% relative atmospheric humidity; for MIC: Aspergillus niger, 336 h
# Method: (§1) The active compounds according to the invention are in each case added, in concentrations of from 0.1 mg/l to 5000 mg/l, to an agar which is prepared using malt extract. The MIC is determined after 2 weeks of incubation at 28° C. and 60 to 70% relative atmospheric humidity.
# Chaetomium globosum = assay: as above; format: cell-based; conditions: 2 weeks of incubation at 28° C., 60 to 70% relative atmospheric humidity; for MIC: Chaetomium globosum, 336 h
# Method: as §1
# Penicillium brevicaule = assay: as above; format: cell-based; conditions: 2 weeks of incubation at 28° C., 60 to 70% relative atmospheric humidity; for MIC: Penicillium, 336 h
# Method: as §1
# [1] = tested on: mould fungi (Alternaria tenius, Aspergillus flavus, Aspergillus niger, Aspergillus ustus, Cindosporum herbarum, Paecilomyces variotii, Penicillium citrium …); assay: Test of dispersion coatings for resistance to mould; conditions: coatings according to recipe A containing 1.5% (based on solids) of compound; even after leaching out and wind tunnel exposure; 2–3 weeks storage
# Method: To test dispersion coatings for resistance to mould, the following procedure is adopted:
# The paint to be tested is applied to both sides of a suitable base. To obtain results which are close to practice, some of the test specimens are leached out with running water (24 h, 20° C.) before the test for mould resistance; others are treated with a current of warm fresh air (7 days, 40° C.).
# The samples prepared in this way are then placed on an agar nutrient medium, and both samples and nutrient medium are contaminated with fungal spores. After 2–3 weeks storage (29±1° C., 80–90% rel. atmospheric humidity), the samples are compared.
# The coating is considered to be permanently mould-resistant if the sample remains free from fungus or at most a slightly border infestation can be detected.
# For the contamination, fungal spores of the following mould fungi are used, which are known as paint destroyers or are frequently encountered on coatings: • Alternaria tenius • Aspergillus flavus • Aspergillus niger • Aspergillus ustus • Cindosporum herbarum • Paecilomyces variotii • Penicillium citrium • Aureobasidium pullulans • Stachybotrys chartarum
# Recipe A: Exterior dispersion paint based on Acroal 290 D (styrene acrylate)
# Bacillus subtilis = assay: Minimum inhibitory concentration (MIC) against bacteria on nutrient agar; format: cell-based; conditions: 3 days of incubation at 28° C., 60 to 70% relative atmospheric humidity; for MIC: Bacillus subtilis, 72 h
# Method: The active compounds according to the invention are in each case added, in concentrations of from 0.1 mg/ml to 5000 mg/ml, to a chemically defined nutrient agar. The MIC is determined after 3 days of incubation at 28° C. and 60 to 70% relative atmospheric humidity.
Structure (SMILES),MIC (Aspergillus niger) [µg/mL],MIC (Chaetomium globosum) [µg/mL],MIC (Penicillium brevicaule) [µg/mL],"Minimum inhibitory concentration, Chaetomium globosum (Chaetomium globosum) [ppm]","Minimum inhibitory concentration, Penicillium brevicaule (Penicillium brevicaule) [ppm]",further results
"CC(C)(C)c1ccc(SC2=NCCCS2)cc1 [CAS No. 73122-48-2, 2-[(4-tert-butylphenyl)sulfanyl]-5,6-dihydro-4H-1,3-thiazine]",100,< 100,< 100,,,
"Clc1ccc(SC2=NCCCS2)cc1Cl [CAS No. 73122-34-6, 2-[(3,4-dichlorophenyl)sulfanyl]-5,6-dihydro-4H-1,3-thiazine]",400,< 100,< 100,,,
"Brc1ccc(SC2=NCCCS2)cc1 [CAS No. 73122-41-5, 2-[(4-bromophenyl)sulfanyl]-5,6-dihydro-4H-1,3-thiazine]",< 300,< 200,< 200,,,
CCc1ccc(SC2=NCCCS2)cc1 [Example 44],,,,<100,<100,"Minimum inhibitory concentration, Aspergillus niger (Aspergillus niger): 100 ppm"
"O=[N+]([O-])c1ccc(SC2=NCCS2)cc1 [CAS No. 103482-99-1, 2-[4-nitrophenylsulfanyl]-4,5-dihydro-1,3-thiazole]",,< 200,< 200,,,
"CN(C)c1ccc(SC2=NCCCS2)cc1 [CAS No. 73122-51-7, 4-(5,6-dihydro-4H-1,3-thiazin-2-ylsulfanyl)-N,N-dimethylaniline]",200,< 100,100,,,
c1ccc(Oc2ccc(SC3=NCCCS3)cc2)cc1 [Example 45],,,,<100,100,
COc1cccc(SC2=NCCCS2)c1 [Example 25],,,,,,Mould resistance of coating [1]: mould-resistant
COc1ccccc1SC1=NCCCS1 [Example 26],,,,200,100,
COc1ccc(SC2=NCCCS2)cc1OC [Example 42],,,,100,<200,"Minimum inhibitory concentration, Aspergillus niger (Aspergillus niger): 500 ppm"
"C=CCSC1=NCCS1 [CAS No. 3571-74-2, 2-[allylsulfanyl]-4,5-dihydro-1,3-thiazole]",,,,,,MIC (Bacillus subtilis): 200 µg/mL
c1cc(C2CC2)ccc1SC1=NCCCS1 [Example 49],,,,<100,<100,"Minimum inhibitory concentration, Aspergillus niger (Aspergillus niger): 100 ppm"
Oc1cccc(SC2=NCCCS2)c1 [Example 41],,,,200,100,
"Clc1ccc(SC2=NCCS2)cc1 [CAS No. 103482-92-4, 2-[4-chlorophenylsulfanyl]-4,5-dihydro-1,3-thiazole]",,< 200,200,,,
"Clc1ccc(SC2=NCCCS2)c(Cl)c1 [CAS No. 73122-35-7, 2-[(2,4-dichlorophenyl)sulfanyl]-5,6-dihydro-4H-1,3-thiazine]",,,,,,MIC (Bacillus subtilis): < 40 µg/mL
"Clc1cc(Cl)cc(SC2=NCCCS2)c1 [CAS No. 73122-37-9, 2-[(3,5-dichlorophenyl)sulfanyl]-5,6-dihydro-4H-1,3-thiazine]",,,,,,MIC (Bacillus subtilis): 100 µg/mL
"Clc1ccccc1SC1=NCCCS1 [CAS No. 55545-14-7, 2-[(2-chlorophenyl)sulfanyl]-5,6-dihydro-4H-1,3-thiazine]",< 200,< 200,< 200,,,
Cc1cccc(C)c1SC1=NCCCS1 [Example 37],,,,<200,400,

Structure (SMILES),MIC (Aspergillus niger) [µg/mL],MIC (Chaetomium globosum) [µg/mL],MIC (Penicillium brevicaule) [µg/mL],"Minimum inhibitory concentration, Chaetomium globosum (Chaetomium globosum) [ppm]","Minimum inhibitory concentration, Penicillium brevicaule (Penicillium brevicaule) [ppm]",further results
"Clc1ccc(SC2=NCCCS2)cc1 [CAS No. 10554-28-6, 2-[(4-chlorophenyl)sulfanyl]-5,6-dihydro-4H-1,3-thiazine]",< 400,< 200,< 200,,,
"c1ccc(SC2=NCCCS2)cc1 [CAS No. 73122-32-4, 2-(phenylsulfanyl)-5,6-dihydro-4H-1,3-thiazine]",< 300,< 200,< 200,,,MIC (Bacillus subtilis): < 100 µg/mL
COC(=O)C1CSC(Sc2cccc(Cl)c2)=N1 (stereo not drawn) [Example 18],,,,200,,
"O=[N+]([O-])c1ccc(SC2=NCCCS2)cc1 [CAS No. 73122-52-8, 2-[(4-nitrophenyl)sulfanyl]-5,6-dihydro-4H-1,3-thiazine]",< 150,< 100,< 200,,,
FC(F)(F)c1ccc(SC2=NCCCS2)cc1 [Example 40],,,,<100,<100,"Minimum inhibitory concentration, Aspergillus niger (Aspergillus niger): <250 ppm"
"COc1ccc(SC2=NCCCS2)cc1 [CAS No. 73122-49-3, 2-[(4-methoxyphenyl)sulfanyl]-5,6-dihydro-4H-1,3-thiazine]",< 400,< 400,< 300,,,
"Cc1ccccc1SC1=NCCCS1 [CAS No. 73122-46-0, 2-[(2-methylphenyl)sulfanyl]-5,6-dihydro-4H-1,3-thiazine]",200,< 200,100,,,
"Clc1cccc(SC2=NCCS2)c1 [CAS No. 103482-93-5, 2-[3-chlorophenylsulfanyl]-4,5-dihydro-1,3-thiazole]",,< 200,200,,,
COc1ccccc1SC1=NCCCS1 [Example 36],,,,100,100,"Minimum inhibitory concentration, Aspergillus niger (Aspergillus niger): 100 ppm"
c1ccc(-c2cccc(SC3=NCCCS3)c2)cc1 [Example 48],,,,<100,200,
"Cc1cccc(SC2=NCCCS2)c1 [CAS No. 73122-45-9, 2-[(3-methylphenyl)sulfanyl]-5,6-dihydro4H-1,3-thiazine]",< 200,< 100,< 100,,,
"Cc1ccc(SC2=NCCCS2)cc1 [CAS No. 73122-44-8, 2-[(4-methylphenyl)sulfanyl]-5,6-dihydro4H-1,3-thiazine]",< 250,< 200,< 100,,,
Fc1cccc(SC2=NCCCS2)c1 [Example 39],,,,<100,<100,"Minimum inhibitory concentration, Aspergillus niger (Aspergillus niger): 100 ppm"
COC(=O)C1CSC(SC(C)C)=N1 (stereo not drawn) [Example 8],,,,,,"Minimum inhibitory concentration, Bacillus subtilis (Bacillus subtilis): <200 ppm"
"Fc1ccc(SC2=NCCCS2)cc1 [CAS No. 73122-42-6, 2-[(4-fluorophenyl)sulfanyl]-5,6-dihydro-4H-1,3-thiazine]",100,< 100,< 50,,,
c1ccc(CSC2=NCCCS2)cc1 [Example 22],,,,,,"Minimum inhibitory concentration, Bacillus subtilis (Bacillus subtilis): 100 ppm"
"Clc1cccc(SC2=NCCCS2)c1 [CAS No. 73122-33-5, 2-[(3-chlorophenyl)sulfanyl]-5,6-dihydro4H-1,3-thiazine]",200,< 200,< 200,,,
